Results on 28 compounds are retold here after publication PMC9822073, “Synthesis, Cytotoxic Evaluation, and Structure-Activity Relationship of Substituted Quinazolinones as Cyclin-Dependent Kinase 9 Inhibitors” (Molecules, 2022).

One series deals with MCF-7 cell line. The series is described as follows: MTT metabolic (antiproliferative) assay. The settings on record: read-out: Cytotoxicity IC50, MCF-7, 48 h, mean ± SD.
The target of another series is CDK9/cyclin T (Homo sapiens, UniProt P50750). Put plainly: In vitro luminescent CDK9 kinase assay (Kinase-Glo MAX). The settings on record: for reduction in CDK9 inhibitory activity: compared with compound 25. The format is biochemical. How it is done:
In vitro luminescent CDK9 kinase assay was performed as reported previously using Kinase- Glo® MAX as a detection reagent. Briefly, 5 μL of each inhibitor in concentrations ranging from 10 μM to 1 nM (10 μM, 1 μM, 0.1 μM, 0.01 μM, and 0.001 μM) and 10 μL of enzyme substrate were mixed in 20 μL of kinase assay buffer (obtained from BPS Bioscience, catalog #79334) at room temperature. Then 20 μL of 5 ng/μL CDK9/cyclin T was added to the mixture to initiate the reaction. After 45 min, 50 μL of Kinase-Glo® Max reagent was added, and the resulting mixture was incubated for 15 min at room temperature. The chemiluminescence was measured microplate reader, and IC50 values were calculated using Prism 8.0 (GraphPad Software, San Diego, CA, USA).
On the technique in general: In Kinase-Glo more light means more ATP remaining.

For the next series, the system named is CDK9. On the set-up: method as in PMID 33142413, PMID 24150998. The settings on record: Figure 2; cited from earlier work.
[1] abbreviates: CDK9 IC50 as used for LE and LLE, read-out: IC50 (CDK9, Table 4).
Where [2] appears, read: negative log of the CDK9 IC50, read-out: pIC50 (converted).

Read-outs that look alike come from different tables or passages of the source.

Chain of CDK9/cyclin T (P50750 whole entry): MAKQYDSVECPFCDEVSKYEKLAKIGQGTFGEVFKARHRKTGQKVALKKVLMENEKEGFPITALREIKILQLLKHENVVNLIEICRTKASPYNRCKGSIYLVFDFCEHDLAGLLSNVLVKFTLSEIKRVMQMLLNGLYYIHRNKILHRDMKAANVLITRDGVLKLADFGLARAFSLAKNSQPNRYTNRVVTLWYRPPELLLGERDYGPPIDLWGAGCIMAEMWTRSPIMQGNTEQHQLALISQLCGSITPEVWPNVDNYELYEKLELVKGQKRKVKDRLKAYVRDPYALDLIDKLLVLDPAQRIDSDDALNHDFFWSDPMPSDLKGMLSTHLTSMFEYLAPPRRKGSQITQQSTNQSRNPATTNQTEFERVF
Chain of CDK9/cyclin T (O60563 whole entry partner): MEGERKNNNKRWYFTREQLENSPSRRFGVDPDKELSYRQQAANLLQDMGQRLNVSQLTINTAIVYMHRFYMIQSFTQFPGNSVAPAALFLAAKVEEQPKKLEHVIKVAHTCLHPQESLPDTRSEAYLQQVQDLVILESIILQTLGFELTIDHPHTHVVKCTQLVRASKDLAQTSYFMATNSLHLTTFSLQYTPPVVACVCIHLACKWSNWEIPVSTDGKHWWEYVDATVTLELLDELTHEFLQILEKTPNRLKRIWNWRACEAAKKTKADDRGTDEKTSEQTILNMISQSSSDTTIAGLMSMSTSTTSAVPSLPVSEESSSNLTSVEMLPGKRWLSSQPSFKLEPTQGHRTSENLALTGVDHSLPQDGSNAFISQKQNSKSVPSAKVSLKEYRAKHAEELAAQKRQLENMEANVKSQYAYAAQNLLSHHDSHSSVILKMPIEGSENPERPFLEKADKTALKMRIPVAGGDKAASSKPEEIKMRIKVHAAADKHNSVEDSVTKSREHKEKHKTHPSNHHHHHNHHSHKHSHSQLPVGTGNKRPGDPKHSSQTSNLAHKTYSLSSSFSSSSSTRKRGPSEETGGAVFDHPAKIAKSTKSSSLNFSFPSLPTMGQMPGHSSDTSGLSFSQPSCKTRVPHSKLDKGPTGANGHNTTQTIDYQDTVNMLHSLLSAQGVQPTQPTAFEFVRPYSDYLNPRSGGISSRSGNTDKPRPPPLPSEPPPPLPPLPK
Protocol for MCF-7 cell line: The antiproliferative activity of the twenty-seven compounds was evaluated by 3-(4,5-dimethylthiazol-2-yl)-2,5-diphenyltetrazolium bromide (MTT) metabolic assay against the MCF-7 cell line, according to a previous method [26].

As for `COc1ccc(CNC(=O)CSc2nc3ccccc3c(=O)n2CCc2ccc(S(N)(=O)=O)cc2)cc1OC` [Compound 14], the IC50 was determined as 590 ± 100 nM in the series with MCF-7 cell line; 229 nM at CDK9/cyclin T (setting [1]); 229 ± 4 nM at CDK9/cyclin T (mean ± SD, read-out: CDK9 IC50).
Taken in the same sequence, the figures for `CC(Sc1nc2ccccc2c(=O)n1CCc1ccc(S(N)(=O)=O)cc1)C(=O)Nc1ccccc1` (centres unmarked) [Compound 15] were 670 ± 180 nM, 444 nM and 444 ± 7 nM.
Turning to `CCOc1ccc(NC(=O)CSc2nc3ccccc3c(=O)n2CCc2ccc(S(N)(=O)=O)cc2)cc1` [Compound 7], the IC50 in the series on MCF-7 cell line amounted to 1570 ± 40 nM; at CDK9/cyclin T (setting [1]), 115 nM; on CDK9/cyclin T (mean ± SD, read-out: CDK9 IC50), 115 ± 2 nM. Besides, at CDK9/cyclin T (compared to the hit compound 1), the “increase of CDK9 inhibitory activity” value is recorded as “around 6 fold”.
Turning to `O=c1[nH]cnc2ccc(I)cc12` [Compound 17], the IC50 in the series on MCF-7 cell line was determined as 3880 ± 120 nM; at CDK9/cyclin T (setting [1]), 639 nM; at CDK9/cyclin T (mean ± SD, read-out: CDK9 IC50) it was 639 ± 4 nM.
On to `CC(Sc1nc2ccccc2c(=O)n1CCc1ccc(S(N)(=O)=O)cc1)C(=O)Nc1ccc(Cl)cc1` (centres unmarked) [Compound 16], for which the IC50 in the series on MCF-7 cell line was 730 ± 10 nM; at CDK9/cyclin T (mean ± SD, read-out: CDK9 IC50), 350 ± 6 nM; at CDK9/cyclin T (setting [2]), 347 nM.
For the compound `Cc1ccc(-c2nc3ccc(Cl)cc3c(=O)[nH]2)cc1` [Compound 19], the IC50 in the series on MCF-7 cell line stood at 12300 ± 390 nM; on CDK9/cyclin T (setting [1]), 282 nM; at CDK9/cyclin T (mean ± SD, read-out: CDK9 IC50), 282 ± 3 nM.
On the same counts, the results for `Cc1ccc(NC(=O)CSc2nc3ccccc3c(=O)n2CCc2ccc(S(N)(=O)=O)cc2)cc1` [Compound 4] are 160 ± 20 nM, 788 nM and 788 ± 12 nM.
As for `Cc1ccc2nc(-c3cccc(Br)c3)oc(=O)c2c1` [Compound 24, 2-(3-Bromophenyl)-6-methyl-4H-benzo[d][1,3]oxazin-4-one], the IC50 in the series on MCF-7 cell line came to 10400 ± 330 nM; at CDK9/cyclin T (setting [1]), 486 nM; on CDK9/cyclin T (mean ± SD, read-out: CDK9 IC50) it was 486 ± 4 nM. Further, the “reduction in CDK9 inhibitory activity” value on CDK9/cyclin T is 3 fold.
With `NS(=O)(=O)c1ccc(CCn2c(=S)[nH]c3ccccc3c2=O)cc1` [Compound 1, 2-Mercapto-3-(4-sulfamoylphenethyl)quinazolin-4-one], the IC50 in the series with MCF-7 cell line turned out to be 650 ± 150 nM; at CDK9/cyclin T (setting [1]), 644 nM; on CDK9/cyclin T (mean ± SD, read-out: CDK9 IC50) it was 644 ± 7 nM.
For `NS(=O)(=O)c1ccc(CCn2c(SCC(=O)Nc3ccc(F)cc3)nc3ccccc3c2=O)cc1` [Compound 11], the IC50 in the series with MCF-7 cell line amounted to 3860 ± 780 nM; on CDK9/cyclin T (setting [1]), 336 nM; at CDK9/cyclin T (mean ± SD, read-out: CDK9 IC50), 336 ± 5 nM.
Take `Cc1ccc2nc(-c3cccc(Br)c3)[nH]c(=S)c2c1` [Compound 26, 2-(3-Bromophenyl)-6-methylquinazoline-4(3H)-thione]: the IC50 in the series on MCF-7 cell line was 5210 ± 170 nM; on CDK9/cyclin T (setting [1]) it was 289 nM; on CDK9/cyclin T (mean ± SD, read-out: CDK9 IC50) it was 289 ± 2 nM. Besides, the “reduction in CDK9 inhibitory activity” value at CDK9/cyclin T was 2 fold.
For `O=c1[nH]c(-c2ccc(Cl)cc2)nc2ccc([N+](=O)[O-])cc12` [Compound 20], the IC50 in the series on MCF-7 cell line is 6070 ± 190 nM; on CDK9/cyclin T (setting [1]), 434 nM; at CDK9/cyclin T (mean ± SD, read-out: CDK9 IC50) it was 434 ± 3 nM. In addition, the “reduction in potency against CDK9” value at CDK9/cyclin T (compound 20 versus compound 19) stood at 1 fold.
For `CC(=O)c1ccc(NC(=O)CSc2nc3ccccc3c(=O)n2CCc2ccc(S(N)(=O)=O)cc2)cc1` [Compound 5], the IC50 came out at 180 ± 90 nM in the series with MCF-7 cell line; 829 nM at CDK9/cyclin T (setting [1]); 829 ± 14 nM on CDK9/cyclin T (mean ± SD, read-out: CDK9 IC50).
Taken in the same sequence, the figures for `O=c1[nH]c(-c2cccs2)nc2ccc(I)cc12` [Compound 18] were 21400 ± 680 nM, 296 nM and 296 ± 3 nM.
Turning to `NS(=O)(=O)c1ccc(CCn2c(SCc3ccccc3)nc3ccccc3c2=O)cc1` [VI], the IC50 in the series with CDK9 is 67000 nM.
For `CN1CC[C@H](c2c(O)cc(O)c3c(=O)cc(-c4ccccc4Cl)oc23)[C@H](O)C1` [Flavopiridol, flavopiridol, reference compound], the IC50 in the series with MCF-7 cell line was determined as 40 ± 1 nM.
For `NS(=O)(=O)c1ccc(CCn2c(SCC(=O)NCc3ccc(F)cc3)nc3ccccc3c2=O)cc1` [Compound 12], the IC50 in the series on MCF-7 cell line stood at 690 ± 230 nM; at CDK9/cyclin T (setting [1]), 218 nM; on CDK9/cyclin T (mean ± SD, read-out: CDK9 IC50) it was 218 ± 4 nM.
Taken in the same sequence, the figures for `NS(=O)(=O)c1ccc(CCn2c(SCC(=O)Nc3ccc(Cl)cc3)nc3ccccc3c2=O)cc1` [Compound 10] were 1040 ± 70 nM, 193 nM and 193 ± 3 nM.
Taken in the same sequence, the figures for `COc1ccc(CNC(=O)CSc2nc3ccccc3c(=O)n2CCc2ccc(S(N)(=O)=O)cc2)cc1` [Compound 13] were 840 ± 150 nM, 334 nM and 334 ± 6 nM.
For `COc1cc(NC(=O)CSc2nc3ccccc3c(=O)n2CCc2ccc(S(N)(=O)=O)cc2)cc(OC)c1OC` [Compound 8], the IC50 in the series with MCF-7 cell line came to 2480 ± 320 nM; on CDK9/cyclin T (setting [1]), 501 nM; at CDK9/cyclin T (mean ± SD, read-out: CDK9 IC50), 501 ± 9 nM.
For `Cc1ccc2nc(-c3cccc(Br)c3)n(N)c(=O)c2c1` [Compound 27, 3-Amino-2-(3-bromophenyl)-6-methylquinazolin-4(3H)-one], the IC50 is 28700 ± 920 nM in the series with MCF-7 cell line; 835 nM at CDK9/cyclin T (setting [1]); 835 ± 6 nM at CDK9/cyclin T (mean ± SD, read-out: CDK9 IC50). Further, the “reduction in CDK9 inhibitory activity” value on CDK9/cyclin T is “approximately 6 fold”.
With `Cc1ccc(NC(=O)c2cccc(Br)c2)c(C(=O)O)c1` [Compound 23, 2-(3-Bromobenzamido)-5-methylbenzoic acid], the melting point lay in the range of 155 to 157 °C. Also, the IC50 in the series on MCF-7 cell line was 11500 ± 370 nM. Further, the IC50 on CDK9/cyclin T (mean ± SD, read-out: CDK9 IC50) amounted to 210 ± 3 nM. Moreover, the IC50 at CDK9/cyclin T (setting [2]) is 209 nM.
Turning to `Cc1ccc2nc(-c3cccc(Br)c3)[nH]c(=O)c2c1` [Compound 25, 2-(3-Bromophenyl)-6-methylquinazolin-4(3H)-one], the IC50 was determined as 16800 ± 540 nM with MCF-7 cell line; 142 nM on CDK9/cyclin T (setting [1]); 142 ± 1 nM at CDK9/cyclin T (mean ± SD, read-out: CDK9 IC50).
On the same counts, the results for `NC(=O)CSc1nc2ccccc2c(=O)n1CCc1ccc(S(N)(=O)=O)cc1` [Compound 2] are 2310 ± 390 nM, 454 nM and 454 ± 6 nM.
Turning to `Cc1ccc2nc(-c3cccc(Br)c3)n(O)c(=O)c2c1` [Compound 28, 2-(3-Bromophenyl)-3-hydroxy-6-methylquinazolin-4(3H)-one], the IC50 was 6270 ± 200 nM with MCF-7 cell line; 210 ± 2 nM at CDK9/cyclin T (mean ± SD, read-out: CDK9 IC50); 209 nM on CDK9/cyclin T (setting [2]).
As for `NS(=O)(=O)c1ccc(CCn2c(SCC(=O)Nc3ccccc3)nc3ccccc3c2=O)cc1` [Compound 3], the IC50 came to 820 ± 80 nM in the series on MCF-7 cell line; 421 nM at CDK9/cyclin T (setting [1]); 421 ± 6 nM on CDK9/cyclin T (mean ± SD, read-out: CDK9 IC50).
Regarding `NS(=O)(=O)c1ccc(CCn2c(SCC(=O)Nc3ccc(Br)cc3)nc3ccccc3c2=O)cc1` [Compound 9], the IC50 in the series on MCF-7 cell line amounted to 1720 ± 260 nM; at CDK9/cyclin T (setting [1]), 131 nM; on CDK9/cyclin T (mean ± SD, read-out: CDK9 IC50) it was 131 ± 2 nM.
On the same counts, the results for `COc1ccc(NC(=O)CSc2nc3ccccc3c(=O)n2CCc2ccc(S(N)(=O)=O)cc2)cc1` [Compound 6] are 4650 ± 1380 nM, 463 nM and 463 ± 7 nM.

One may read the melting point as the temperature, or range, at which the solid turns liquid.
